US12435046B2, “Alkynyl quinazoline compounds” (Black Diamond Therapeutics, Inc., priority 2019, dated 2025)

What was measured:
HER2 YVMA = biological target: T1, HER2 YVMA (Homo sapiens, UniProt P04626, INS775YVMA); assay: BaF3 cell proliferation assay (CellTiterGlo), HER2 YVMA; format: cell-based; conditions: Table A; BaF3 cells, 3 days
T1 construct: expressed in transfected cells; host or cells: BaF3 (murine pro-B) cells

EGFR wt = biological target: T2, EGFR wt (Homo sapiens, UniProt P00533); assay: BaF3 cell proliferation assay (CellTiterGlo), EGFR wt; format: cell-based; conditions: BaF3 cells, 3 days
T2 construct: expressed in transfected cells; host or cells: BaF3 (murine pro-B) cells, retroviral transduction with pMXs-IRES-Blasticidin
Procedure, shortened: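 BaF3 cells engineered by retroviral transduction to express EGFR and selected for blasticidin resistance and IL-3 independent growth were suspended at 1.3E5 c/ml in RPMI with 10% heat inactivated FBS, 2% L-glutamine and 1% Pen/Strep. They were plated in triplicate in 96 well plates and exposed to vehicle or varying drug concentrations for 3 days. Viability was quantified by CellTiterGlo ATP luminescence, normalized to vehicle, and curves fitted in PRISM.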

HER2 S310F = biological target: T3, HER2 S310F (Homo sapiens, UniProt P04626, S310F); assay: BaF3 cell proliferation assay (CellTiterGlo), HER2 S310F; format: cell-based; conditions: Table A; BaF3 cells, 3 days
T3 construct: expressed in transfected cells; host or cells: BaF3 (murine pro-B) cells

EGFR SVD = biological target: T4, EGFR SVD (Homo sapiens, UniProt P00533, INS770SVD); assay: BaF3 cell proliferation assay (CellTiterGlo), EGFR SVD; format: cell-based; conditions: Table A; BaF3 cells, 3 days
T4 construct: expressed in transfected cells; host or cells: BaF3 (murine pro-B) cells, retroviral transduction with pMXs-IRES-Blasticidin
Protocol: (§1) Retroviral Production: EGFR mutants were subcloned into pMXs-IRES-Blasticidin (RTV-016, Cell Biolabs, San Diego, CA). Retroviral expression vector retrovirus was produced by transient transfection of HEK 293T cells with the retroviral EGFR mutant expression vector pMXs-IRES-Blasticidin (RTV-016, Cell Biolabs), pCMV-Gag-Pol vector and pCMV-VSV-G-Envelope vector. Briefly, HEK 293T/17 cells were plated in 100 mm collagen coated plate (354450, Corning Life Sciences, Tewksbury, MA) (4×10^5 per plate) and incubated overnight. The next day, retroviral plasmids (3 ng of EGFR mutant, 1.0 ng of pCMV-Gag-Pol and 0.5 ng pCMV-VSV-G) were mixed in 500 n1 of Optimem (31985, Life Technologies). The mixture was incubated at room temperature for 5 min and then added to Optimem containing transfection reagent Lipofectamine (11668, Invitrogen) and incubated for 20 minutes. Mixture was then added dropwise to HEK 293T cells. The next day the medium was replaced with fresh culture medium and retrovirus was harvested @ 24 and 48 hrs.
(§2) Generation of EGFR mutant stable cell lines: BaF3 cells (1.5E5 cells) were infected with 1 ml of viral supernatant supplemented with 8 ng/ml polybrene by centrifuging for 30 min at 1000 rpm. Cells were placed in a 37° C. incubator overnight. Cells were then spun for 5 minutes to pellet the cells. Supernatant was removed and cells re-infected a fresh 1 ml of viral supernatant supplemented with 8 ng/ml polybrene by centrifuging for 30 min at 1000 rpm. Cells were placed in 37° C. incubator overnight. Cells were then maintained in RPMI containing 10% Heat Inactivated FBS, 2% L-glutamine containing 10 ng/ml IL-3. After 48 hours cells were selected for retroviral infection in 10 […] for one week. Blasticidin resistant populations were washed twice in phosphate buffered saline before plating in media lacking IL-3 to select for IL-3 independent growth.
(§3) Assay for cell proliferation: BaF3 cell lines were resuspended at 1.3E5 c/ml in RPMI containing 10% Heat Inactivated FBS, 2% L-glutamine and 1% Pen/Strep and dispensed in triplicate (17.5E4 c/well) into 96 well plates. To determine the effect of drug on cell proliferation, cells incubated for 3 days in the presence of vehicle control or test drug at varying concentrations. Inhibition of cell growth was determined by luminescent quantification of intracellular ATP content using CellTiterGlo (Promega), according to the protocol provided by the manufacturer. Comparison of cell number on day 0 versus 72 hours post drug treatment was used to plot dose-response curves. The number of viable cells was determined and normalized to vehicle-treated controls. Inhibition of proliferation, relative to vehicle-treated controls was expressed as a fraction of 1 and graphed using PRISM® software (Graphpad Software, San Diego, CA). EC50 values were determined with the same application.

EGFR V3 = biological target: T5, EGFR V3 (Homo sapiens, UniProt P00533, DELINS30-297G); assay: BaF3 cell proliferation assay (CellTiterGlo), EGFR V3; format: cell-based; conditions: BaF3 cells, 3 days
T5 construct: expressed in transfected cells; host or cells: BaF3 (murine pro-B) cells, retroviral transduction with pMXs-IRES-Blasticidin
Procedure, shortened: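 BaF3 cells made IL-3-independent by retroviral expression of each EGFR or HER2 mutant were treated in triplicate with compound for 72 h. Viability was read by CellTiterGlo ATP luminescence and normalised to vehicle, and EC50 was fitted from dose-response curves.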

EGFR NPH = biological target: T6, EGFR NPH (Homo sapiens, UniProt P00533, INS773NPH); assay: BaF3 cell proliferation assay (CellTiterGlo), EGFR NPH; format: cell-based; conditions: Table A; BaF3 cells, 3 days
T6 construct: expressed in transfected cells; host or cells: BaF3 (murine pro-B) cells, retroviral transduction with pMXs-IRES-Blasticidin
Protocol: as §1, §2, §3

EGFR A289V = biological target: T7, EGFR A289V (Homo sapiens, UniProt P00533, A289V); assay: BaF3 cell proliferation assay (CellTiterGlo), EGFR A289V; format: cell-based; conditions: Table B; BaF3 cells, 3 days
T7 construct: expressed in transfected cells; host or cells: BaF3 (murine pro-B) cells, retroviral transduction with pMXs-IRES-Blasticidin
Protocol: as §1, with “The mixture was incubated at room temperature for 5 min and then added to Optimem containing transfection reagent Lipofectamine (11668, Invitrogen) and incubated for 20 minutes. Mixture was then added dropwise to HEK 293T cells. The next day the medium was replaced with fresh culture medium and retrovirus was harvested @ 24 and 48 hrs.” left out
as §3, with “To determine the effect of drug on cell proliferation, cells incubated for 3 days in the presence of vehicle control or test drug at varying concentrations.” left out, “Comparison of cell number on day 0 versus 72 hours post drug treatment was used to plot dose-response curves.” left out

EGFR V6 = biological target: T8, EGFR V6 (Homo sapiens, UniProt P00533, DEL434-544); assay: BaF3 cell proliferation assay (CellTiterGlo), EGFR V6; format: cell-based; conditions: Table B; BaF3 cells, 3 days
T8 construct: expressed in transfected cells; host or cells: BaF3 (murine pro-B) cells, retroviral transduction with pMXs-IRES-Blasticidin
Protocol: as §1, with “The mixture was incubated at room temperature for 5 min and then added to Optimem containing transfection reagent Lipofectamine (11668, Invitrogen) and incubated for 20 minutes. Mixture was then added dropwise to HEK 293T cells. The next day the medium was replaced with fresh culture medium and retrovirus was harvested @ 24 and 48 hrs.” left out
as §3, with “To determine the effect of drug on cell proliferation, cells incubated for 3 days in the presence of vehicle control or test drug at varying concentrations.” left out, “Comparison of cell number on day 0 versus 72 hours post drug treatment was used to plot dose-response curves.” left out

EGFR V2 = biological target: T9, EGFR V2 (Homo sapiens, UniProt P00533, DEL545-627); assay: BaF3 cell proliferation assay (CellTiterGlo), EGFR V2; format: cell-based; conditions: Table B; BaF3 cells, 3 days
T9 construct: expressed in transfected cells; host or cells: BaF3 (murine pro-B) cells, retroviral transduction with pMXs-IRES-Blasticidin
Protocol: as §1, with “The mixture was incubated at room temperature for 5 min and then added to Optimem containing transfection reagent Lipofectamine (11668, Invitrogen) and incubated for 20 minutes. Mixture was then added dropwise to HEK 293T cells. The next day the medium was replaced with fresh culture medium and retrovirus was harvested @ 24 and 48 hrs.” left out
as §3, with “To determine the effect of drug on cell proliferation, cells incubated for 3 days in the presence of vehicle control or test drug at varying concentrations.” left out, “Comparison of cell number on day 0 versus 72 hours post drug treatment was used to plot dose-response curves.” left out

EGFR G598V = biological target: T10, EGFR G598V (Homo sapiens, UniProt P00533, G598V); assay: BaF3 cell proliferation assay (CellTiterGlo), EGFR G598V; format: cell-based; conditions: Table B; BaF3 cells, 3 days
T10 construct: expressed in transfected cells; host or cells: BaF3 (murine pro-B) cells, retroviral transduction with pMXs-IRES-Blasticidin
Protocol: as §1, with “The mixture was incubated at room temperature for 5 min and then added to Optimem containing transfection reagent Lipofectamine (11668, Invitrogen) and incubated for 20 minutes. Mixture was then added dropwise to HEK 293T cells. The next day the medium was replaced with fresh culture medium and retrovirus was harvested @ 24 and 48 hrs.” left out
as §3, with “To determine the effect of drug on cell proliferation, cells incubated for 3 days in the presence of vehicle control or test drug at varying concentrations.” left out, “Comparison of cell number on day 0 versus 72 hours post drug treatment was used to plot dose-response curves.” left out

GBM tumors = conditions: phase 2 study, GBM patients, erlotinib in combination with radiation and temozolomide; cited from earlier work

T6 sequence (P00533 with tags, fused parts or gaps INS773NPH): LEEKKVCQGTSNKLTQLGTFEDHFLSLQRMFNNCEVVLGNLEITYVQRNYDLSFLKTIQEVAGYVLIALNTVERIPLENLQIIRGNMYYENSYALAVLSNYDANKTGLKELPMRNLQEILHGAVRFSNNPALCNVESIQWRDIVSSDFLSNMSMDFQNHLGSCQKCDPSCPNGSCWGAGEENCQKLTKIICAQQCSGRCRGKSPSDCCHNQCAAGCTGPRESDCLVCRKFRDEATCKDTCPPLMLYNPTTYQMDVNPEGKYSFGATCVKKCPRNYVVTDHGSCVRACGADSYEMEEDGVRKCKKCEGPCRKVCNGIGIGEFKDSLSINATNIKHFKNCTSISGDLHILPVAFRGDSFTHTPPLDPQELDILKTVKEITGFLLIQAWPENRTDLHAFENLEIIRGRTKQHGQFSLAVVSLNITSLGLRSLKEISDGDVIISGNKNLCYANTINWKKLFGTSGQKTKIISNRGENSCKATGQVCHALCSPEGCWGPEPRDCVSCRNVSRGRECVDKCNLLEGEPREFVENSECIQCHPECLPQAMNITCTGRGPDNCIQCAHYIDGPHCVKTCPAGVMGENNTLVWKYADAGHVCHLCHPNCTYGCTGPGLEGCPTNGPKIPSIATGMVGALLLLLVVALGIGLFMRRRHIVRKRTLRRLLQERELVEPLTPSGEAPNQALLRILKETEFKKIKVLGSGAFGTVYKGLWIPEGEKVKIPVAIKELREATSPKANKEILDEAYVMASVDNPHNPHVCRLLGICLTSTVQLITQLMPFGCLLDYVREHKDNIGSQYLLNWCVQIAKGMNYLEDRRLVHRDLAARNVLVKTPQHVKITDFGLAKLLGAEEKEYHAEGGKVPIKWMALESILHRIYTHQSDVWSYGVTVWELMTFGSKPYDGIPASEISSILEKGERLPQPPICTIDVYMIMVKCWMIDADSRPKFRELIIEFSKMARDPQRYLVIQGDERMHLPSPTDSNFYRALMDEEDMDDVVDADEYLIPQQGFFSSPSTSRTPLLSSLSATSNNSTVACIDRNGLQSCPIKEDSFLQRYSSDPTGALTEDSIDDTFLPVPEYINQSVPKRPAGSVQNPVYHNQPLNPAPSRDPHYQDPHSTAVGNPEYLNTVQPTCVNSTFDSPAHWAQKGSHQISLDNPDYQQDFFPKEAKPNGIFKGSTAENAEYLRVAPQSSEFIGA
T3 sequence (P04626 23-1255 S310F): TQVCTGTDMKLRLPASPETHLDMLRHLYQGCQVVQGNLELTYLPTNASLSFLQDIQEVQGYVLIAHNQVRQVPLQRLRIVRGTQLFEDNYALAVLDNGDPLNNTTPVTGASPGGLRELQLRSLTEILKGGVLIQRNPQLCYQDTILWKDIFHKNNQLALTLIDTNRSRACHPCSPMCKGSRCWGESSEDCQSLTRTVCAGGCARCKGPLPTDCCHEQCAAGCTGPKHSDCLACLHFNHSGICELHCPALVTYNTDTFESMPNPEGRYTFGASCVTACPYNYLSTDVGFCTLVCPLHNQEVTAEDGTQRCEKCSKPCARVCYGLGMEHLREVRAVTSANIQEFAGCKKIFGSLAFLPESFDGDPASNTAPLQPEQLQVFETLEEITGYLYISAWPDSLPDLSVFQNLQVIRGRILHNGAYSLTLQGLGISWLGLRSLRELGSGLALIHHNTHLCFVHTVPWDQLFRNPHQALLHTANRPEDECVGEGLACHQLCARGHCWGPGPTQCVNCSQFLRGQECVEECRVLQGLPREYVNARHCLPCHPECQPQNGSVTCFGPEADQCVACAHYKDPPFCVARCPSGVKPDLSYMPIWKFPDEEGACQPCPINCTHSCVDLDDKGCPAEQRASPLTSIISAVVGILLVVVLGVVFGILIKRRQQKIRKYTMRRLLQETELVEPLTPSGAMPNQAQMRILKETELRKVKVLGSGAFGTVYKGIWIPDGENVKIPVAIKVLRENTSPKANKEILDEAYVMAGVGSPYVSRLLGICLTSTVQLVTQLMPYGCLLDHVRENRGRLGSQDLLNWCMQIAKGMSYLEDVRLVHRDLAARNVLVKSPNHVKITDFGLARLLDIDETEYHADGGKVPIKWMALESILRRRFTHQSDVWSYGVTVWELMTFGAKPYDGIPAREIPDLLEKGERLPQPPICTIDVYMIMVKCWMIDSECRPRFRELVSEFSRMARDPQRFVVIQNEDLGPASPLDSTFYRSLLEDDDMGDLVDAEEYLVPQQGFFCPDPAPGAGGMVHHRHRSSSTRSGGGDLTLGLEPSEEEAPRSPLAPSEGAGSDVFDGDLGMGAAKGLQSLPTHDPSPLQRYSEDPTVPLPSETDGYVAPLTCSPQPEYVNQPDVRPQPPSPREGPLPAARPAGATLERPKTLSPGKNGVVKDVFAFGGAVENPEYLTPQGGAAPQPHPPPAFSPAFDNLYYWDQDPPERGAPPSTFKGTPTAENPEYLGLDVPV
T4 sequence (P00533 with tags, fused parts or gaps INS770SVD): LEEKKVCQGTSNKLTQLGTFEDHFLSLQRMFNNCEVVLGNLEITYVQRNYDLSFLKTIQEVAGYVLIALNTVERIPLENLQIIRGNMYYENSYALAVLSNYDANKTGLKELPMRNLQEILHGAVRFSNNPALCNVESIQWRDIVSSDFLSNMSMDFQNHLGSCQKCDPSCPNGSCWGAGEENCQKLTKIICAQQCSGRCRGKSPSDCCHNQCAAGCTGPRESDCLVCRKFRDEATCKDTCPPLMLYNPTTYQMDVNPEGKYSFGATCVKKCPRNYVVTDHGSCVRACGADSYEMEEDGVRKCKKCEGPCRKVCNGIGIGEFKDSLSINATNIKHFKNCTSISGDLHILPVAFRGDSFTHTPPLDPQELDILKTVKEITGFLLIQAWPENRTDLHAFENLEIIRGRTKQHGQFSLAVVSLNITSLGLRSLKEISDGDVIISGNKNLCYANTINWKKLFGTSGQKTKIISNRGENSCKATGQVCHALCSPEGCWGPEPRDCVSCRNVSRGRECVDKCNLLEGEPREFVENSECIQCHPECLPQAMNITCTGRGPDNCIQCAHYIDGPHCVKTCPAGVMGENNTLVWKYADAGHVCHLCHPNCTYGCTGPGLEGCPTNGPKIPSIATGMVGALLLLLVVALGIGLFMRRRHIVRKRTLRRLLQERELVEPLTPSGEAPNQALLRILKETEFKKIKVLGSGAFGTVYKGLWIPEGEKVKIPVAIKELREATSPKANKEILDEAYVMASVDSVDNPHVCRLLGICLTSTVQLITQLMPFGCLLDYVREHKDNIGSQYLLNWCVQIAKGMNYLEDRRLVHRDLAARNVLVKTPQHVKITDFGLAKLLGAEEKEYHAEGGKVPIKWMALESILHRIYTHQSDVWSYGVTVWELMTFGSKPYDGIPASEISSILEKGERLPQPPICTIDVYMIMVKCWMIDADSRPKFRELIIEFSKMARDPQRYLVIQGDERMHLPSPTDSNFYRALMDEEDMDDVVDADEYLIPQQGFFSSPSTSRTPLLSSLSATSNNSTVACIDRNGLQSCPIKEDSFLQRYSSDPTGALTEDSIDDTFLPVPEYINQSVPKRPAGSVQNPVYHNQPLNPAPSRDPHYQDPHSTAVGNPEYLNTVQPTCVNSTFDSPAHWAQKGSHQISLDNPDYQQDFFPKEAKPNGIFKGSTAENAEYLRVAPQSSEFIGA
T2 sequence (P00533 25-1210): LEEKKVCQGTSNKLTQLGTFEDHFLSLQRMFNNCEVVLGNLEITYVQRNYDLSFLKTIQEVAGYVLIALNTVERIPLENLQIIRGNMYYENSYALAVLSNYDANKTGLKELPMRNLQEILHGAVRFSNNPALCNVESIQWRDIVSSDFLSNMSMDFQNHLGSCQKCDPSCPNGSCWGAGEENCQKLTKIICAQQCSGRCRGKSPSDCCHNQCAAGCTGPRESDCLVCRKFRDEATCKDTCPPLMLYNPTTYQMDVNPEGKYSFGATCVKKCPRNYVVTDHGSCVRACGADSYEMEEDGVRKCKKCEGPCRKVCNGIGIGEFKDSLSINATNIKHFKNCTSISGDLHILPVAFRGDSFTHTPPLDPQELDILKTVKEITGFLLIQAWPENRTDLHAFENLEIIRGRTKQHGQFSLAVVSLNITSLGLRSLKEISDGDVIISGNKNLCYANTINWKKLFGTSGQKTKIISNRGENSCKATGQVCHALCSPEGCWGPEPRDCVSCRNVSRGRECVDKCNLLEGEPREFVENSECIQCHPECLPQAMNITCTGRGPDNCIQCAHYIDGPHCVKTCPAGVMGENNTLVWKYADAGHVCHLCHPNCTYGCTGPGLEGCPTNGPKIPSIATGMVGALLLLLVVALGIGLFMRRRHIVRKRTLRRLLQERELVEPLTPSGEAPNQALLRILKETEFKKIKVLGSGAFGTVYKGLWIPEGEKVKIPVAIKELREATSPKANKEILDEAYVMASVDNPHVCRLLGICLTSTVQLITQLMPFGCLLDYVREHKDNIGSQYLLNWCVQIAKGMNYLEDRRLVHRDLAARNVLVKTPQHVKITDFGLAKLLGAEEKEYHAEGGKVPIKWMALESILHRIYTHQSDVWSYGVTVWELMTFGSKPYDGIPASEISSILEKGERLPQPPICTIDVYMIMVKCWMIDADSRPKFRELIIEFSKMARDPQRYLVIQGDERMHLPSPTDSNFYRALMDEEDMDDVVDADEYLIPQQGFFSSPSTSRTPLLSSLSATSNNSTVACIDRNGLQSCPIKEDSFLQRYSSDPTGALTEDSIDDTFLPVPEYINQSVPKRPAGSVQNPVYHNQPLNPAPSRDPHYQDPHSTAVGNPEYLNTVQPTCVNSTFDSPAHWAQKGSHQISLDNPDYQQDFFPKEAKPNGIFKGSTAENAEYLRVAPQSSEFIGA

Row | IC50 (HER2 YVMA) [nM] | IC50 (EGFR wt; Table A) [nM] | IC50 (HER2 S310F) [nM] | IC50 (EGFR SVD) [nM] | IC50 (EGFR V3; Table A) [nM] | IC50 (EGFR NPH) [nM] | IC50 (EGFR A289V) [nM] | IC50 (EGFR V6) [nM] | IC50 (EGFR wt; Table B) [nM] | IC50 (EGFR V3; Table B) [nM] | IC50 (EGFR V2) [nM] | IC50 (EGFR G598V) [nM] | SMILES | median OS (mOS) (GBM tumors) [months] | median PFS (mPFS) (GBM tumors) [months]
1 | 100 to 500 | 50 to 100 | 50 to 100 | 100 to 500 | ≤ 50 | 50 to 100 |  |  |  |  |  |  | C=CC(=O)Nc1cc2c(Nc3cccc(Cl)c3F)ncnc2cc1C#CC1(C)CCN(C)C1 (centres unmarked) [Compound 1, N-(4-((3-chloro-2-fluorophenyl)amino)-7-((1,3-dimethylpyrrolidin-3-yl)ethynyl)quinazolin-6-yl)acrylamide] |  | 
2 | 100 to 500 | 100 to 500 | 50 to 100 | 100 to 500 | ≤ 50 | 50 to 100 |  |  |  |  |  |  | C=CC(=O)Nc1cc2c(Nc3cccc(Cl)c3F)ncnc2cc1C#C[C@@]1(C)CCN(C)C1 [Compound 2, (R)—N-(4-((3-chloro-2-fluorophenyl)amino)-7-((1,3-dimethylpyrrolidin-3-yl)ethynyl)quinazolin-6-yl)acrylamide] |  | 
3 | 100 to 500 | 50 to 100 | 50 to 100 | 100 to 500 | ≤ 50 | 50 to 100 |  |  |  |  |  |  | C=CC(=O)Nc1cc2c(Nc3cccc(Cl)c3F)ncnc2cc1C#C[C@]1(C)CCN(C)C1 [Compound 3, (S)—N-(4-((3-chloro-2-fluorophenyl)amino)-7-((1,3-dimethylpyrrolidin-3-yl)ethynyl)quinazolin-6-yl)acrylamide] |  | 
4 | ≤ 50 | > 500 | ≤ 50 | ≤ 50 | ≤ 50 | ≤ 50 |  |  |  |  |  |  | C=CC(=O)Nc1cc2c(Nc3ccc(OCc4ccccn4)c(Cl)c3)ncnc2cc1C#CC1(C)CCN(C)C1 (centres unmarked) [Compound 12, N-(4-((3-chloro-4-(pyridin-2-ylmethoxy)phenyl)amino)-7-((1,3-dimethylpyrrolidin-3-yl)ethynyl)quinazolin-6-yl)acrylamide] |  | 
5 | 100 to 500 | ≤ 50 | 100 to 500 |  | ≤ 50 |  | ≤ 10 | ≤ 10 | 25 to 50 | 10 to 25 | ≤ 10 | ≤ 10 | CN1C[C@H]2C[C@@]2(C#Cc2cc3ncnc(Nc4cccc(Cl)c4F)c3cc2NC(=O)/C=C/CN2CCOCC2)C1 [Compound 37, (E)-N-(4-((3-chloro-2-fluorophenyl)amino)-7-(((1R,5S)-3-methyl-3-azabicyclo[3.1.0]hexan-1-yl)ethynyl)quinazolin-6-yl)-4-morpholinobut-2-enamide] |  | 
6 | ≤ 50 | 100 to 500 |  | 100 to 500 | ≤ 50 | 100 to 500 |  |  |  |  |  |  | C=CC(=O)Nc1cc2c(Nc3ccc(Oc4ccccc4)cc3)ncnc2cc1C#C[C@]12C[C@H]1CN(C)C2 [Compound 41, N-(7-(((1S,5R)-3-methyl-3-azabicyclo[3.1.0]hexan-1-yl)ethynyl)-4-((4-phenoxyphenyl)amino)quinazolin-6-yl)acrylamide] |  | 
7 |  |  |  |  |  |  |  |  |  |  |  |  | C#Cc1cccc(Nc2ncnc3cc(OCCOC)c(OCCOC)cc23)c1 [erlotinib] | 8.6 | 2.8
